# Experimental data: patent US12503471B2, “Triazatricycle compounds for the treatment of autoimmune disease” (Hoffmann-La Roche Inc., priority 2019, dated 2025)
# Columns and labels:
# [1] = Human microsomal stability assay; format: in vitro ADME; conditions: human liver microsomes, 1 μM test compound, 0.5 mg/mL protein, 37° C., pH 7.4
# Experimental: Human Microsomal Stability Assay
# Human liver microsomes (Cat.NO.: 452117, Corning, USA) were preincubated with test compound for 10 minutes at 37° C. in 100 mM potassium phosphate buffer, pH 7.4. The reactions were initiated by adding NADPH regenerating system. The final incubation mixtures contained 1 μM test compound, 0.5 mg/mL liver microsomal protein, 1 mM MgCl2, 1 mM NADP, 1 unit/mL isocitric dehydrogenase and 6 mM isocitric acid in 100 mM potassium phosphate buffer, pH 7.4. After incubation times of 0, 3, 6, 9, 15 and 30 minutes at 37° C., 300 μL of cold ACN (including internal standard) was added to 100 μL incubation mixture to terminate the reaction. Following precipitation and centrifugation, 100 uL supernatant will be taken out and added 300 uL water. The amount of compound remaining in the samples was determined by LC-MS/MS. Controls of no NADPH regenerating system at zero and 30 minutes were also prepared and analyzed. The results were categorized as: low (7.0 mL/min/kg), medium (7.0-16.2 mL/min/kg) and high (16.2-23.2 mL/min/kg).
# human TLR8 = target: T1, human TLR8 (Homo sapiens, UniProt Q9NR97); assay: HEK293-Blue-hTLR-8 cells assay; format: cell-based; conditions: HEK293-Blue-hTLR8 cells, R848 stimulation, 20 hrs, SEAP reporter; read-out: HEK/hTLR8 IC50
# T1 construct: host or cells: HEK293 (HEK-Blue hTLR8)
# T1 sequence (Q9NR97 27-1041): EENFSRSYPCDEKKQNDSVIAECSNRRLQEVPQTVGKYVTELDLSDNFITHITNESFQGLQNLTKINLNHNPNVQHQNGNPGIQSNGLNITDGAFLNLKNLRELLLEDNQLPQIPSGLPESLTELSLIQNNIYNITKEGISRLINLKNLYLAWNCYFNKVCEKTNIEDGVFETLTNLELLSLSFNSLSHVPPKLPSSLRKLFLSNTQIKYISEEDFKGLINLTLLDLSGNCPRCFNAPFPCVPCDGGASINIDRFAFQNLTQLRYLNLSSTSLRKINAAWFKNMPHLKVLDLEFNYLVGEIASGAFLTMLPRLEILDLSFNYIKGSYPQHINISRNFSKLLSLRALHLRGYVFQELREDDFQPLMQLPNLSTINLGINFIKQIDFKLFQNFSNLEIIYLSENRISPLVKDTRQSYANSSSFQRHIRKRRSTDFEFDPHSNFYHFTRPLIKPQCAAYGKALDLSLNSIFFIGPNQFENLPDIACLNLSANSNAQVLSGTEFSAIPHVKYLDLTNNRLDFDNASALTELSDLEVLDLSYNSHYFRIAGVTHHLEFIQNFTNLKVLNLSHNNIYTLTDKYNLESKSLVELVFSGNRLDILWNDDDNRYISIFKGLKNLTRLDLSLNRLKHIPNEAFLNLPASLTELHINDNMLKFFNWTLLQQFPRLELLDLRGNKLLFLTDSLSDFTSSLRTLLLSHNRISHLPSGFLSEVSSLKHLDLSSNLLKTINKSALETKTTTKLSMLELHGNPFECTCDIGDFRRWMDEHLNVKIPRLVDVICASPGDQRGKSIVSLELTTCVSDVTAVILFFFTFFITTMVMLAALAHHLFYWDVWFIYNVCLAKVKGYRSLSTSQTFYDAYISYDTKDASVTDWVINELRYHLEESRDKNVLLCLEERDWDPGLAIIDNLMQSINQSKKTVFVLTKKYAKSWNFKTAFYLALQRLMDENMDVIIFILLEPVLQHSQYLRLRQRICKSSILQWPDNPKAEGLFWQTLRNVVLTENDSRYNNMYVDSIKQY
# From the text: HEK293-Blue-hTLR-8 Cells Assay:
# A stable HEK293-Blue-hTLR-8 cell line was purchased from InvivoGen (Cat. #: hkb-htlr8, San Diego, Calif., USA). These cells were originally designed for studying the stimulation of human TLR8 by monitoring the activation of NF-κB. A SEAP (secreted embryonic alkaline phosphatase) reporter gene was placed under the control of the IFN-β minimal promoter fused to five NF-κB and AP-1-binding sites. The SEAP was induced by activating NF-κB and AP-1 via stimulating HEK-Blue hTLR8 cells with TLR8 ligands. Therefore the reporter expression was declined by TLR8 antagonist under the stimulation of a ligand, such as R848, for incubation of 20 hrs. The cell culture supernatant SEAP reporter activity was determined using QUANTI-Blue™ kit (Cat. #: rep-qbl, Invivogen, San Diego, Ca, USA) at a wavelength of 640 nm, a detection medium that turns purple or blue in the presence of alkaline phosphatase.
# HEK293-Blue-hTLR8 cells were incubated at a density of 250,000˜450,000 cells/mL in a volume of 170 μL in a 96-well plate in Dulbecco's Modified Eagle's medium (DMEM) containing 4.5 g/L glucose, 50 U/mL penicillin, […], […], 2 mM L-glutamine, 10% (v/v) heat-inactivated fetal bovine serum with addition of 20 μL test compound in a serial dilution in the presence of final DMSO at 1% and 10 μL of 60 uM R848 in above DMEM, perform incubation under 37° C. in a CO2 incubator for 20 hrs. Then 20 μL of the supernatant from each well was incubated with 180 μL Quanti-blue substrate solution at 37° C. for 2 hrs and the absorbance was read at 620-655 nm using a spectrophotometer. The signaling pathway that TLR8 activation leads to downstream NF-κB activation has been widely accepted, and therefore similar reporter assay was modified for evaluating TLR8 antagonist.
CL (h) [1],IC50 (human TLR8),SMILES
0.372 L/h/kg,0.7 nM,"[2H]c1ccc2c(N3C[C@@H](C)N4Cc5nc(N6CCC7(CNC7)C6)ccc5[C@H]4C3)ccc(C#N)c2n1 [Example 9, 2-Deuterio-5-[(2S,6R)-11-(2,6-diazaspiro[3.4]octan-6-yl)-6-methyl-4,7,10-triazatricyclo[7.4.0.02,7]trideca-1(9),10,12-trien-4-yl]quinoline-8-carbonitrile]"
0.426 L/h/kg,< 0.3 nM,"[2H]c1ccc2c(N3C[C@@H](C)N4Cc5nc(N6CC[C@@H](N)[C@H](OC)C6)ccc5[C@H]4C3)ccc(C#N)c2n1 [Example 11, 5-[(2S,6R)-11-[(3R,4R)-4-amino-3-methoxy-1-piperidyl]-6-methyl-4,7,10-triazatricyclo[7.4.0.02,7]trideca-1(9),10,12-trien-4-yl]-2-deuterio-quinoline-8-carbonitrile]"
0.564 L/h/kg,< 0.3 nM,"[2H]c1ccc2c(N3C[C@@H](C)N4Cc5nc(N6CC[C@H](N)[C@H](OC)C6)ccc5[C@H]4C3)ccc(C#N)c2n1 [Example 13, 5-[(2S,6R)-11-[(3R,4S)-4-amino-3-methoxy-1-piperidyl]-6-methyl-4,7,10-triazatricyclo[7.4.0.02,7]trideca-1(9),10,12-trien-4-yl]-2-deuterio-quinoline-8-carbonitrile]"
0.372 L/h/kg,0.4 nM,"[2H]c1ccc2c(N3C[C@@H](C)N4Cc5nc(N6C[C@@H]7C[C@H]6CN7)ccc5[C@H]4C3)ccc(C#N)c2n1 [Example 16, 2-Deuterio-5-[(2S,6R)-11-[(1S,4S)-2,5-diazabicyclo[2.2.1]heptan-2-yl]-6-methyl-4,7,10-triazatricyclo[7.4.0.02,7]trideca-1(9),10,12-trien-4-yl]quinoline-8-carbonitrile]"
0.396 L/h/kg,3.6 nM,"C[C@@H]1CN(c2ccc(C#N)n3nccc23)C[C@@H]2c3ccc(N4C[C@@H]5C[C@H]4CN5)nc3CN12 [Example 21, 4-[(2S,6R)-11-[(1S,4S)-2,5-diazabicyclo[2.2.1]heptan-2-yl]-6-methyl-4,7,10-triazatricyclo[7.4.0.02,7]trideca-1(9),10,12-trien-4-yl]pyrazolo[1,5-a]pyridine-7-carbonitrile]"
0.372 L/h/kg,0.3 nM,"[2H]c1ccc2c(N3C[C@@H](C)N4Cc5nc(C6CCNCC6)ccc5[C@H]4C3)ccc(C#N)c2n1 [Example 23, 2-Deuterio-5-[(2S,6R)-6-methyl-11-(4-piperidyl)-4,7,10-triazatricyclo[7.4.0.02,7]trideca-1(9),10,12-trien-4-yl]quinoline-8-carbonitrile]"
0.372 L/h/kg,< 0.3 nM,"[2H]c1ccc2c(N3C[C@@H](C)N4Cc5nc(OC6CCNCC6)ccc5[C@H]4C3)ccc(C#N)c2n1 [Example 24, 2-Deuterio-5-[(2S,6R)-6-methyl-11-(4-piperidyloxy)-4,7,10-triazatricyclo[7.4.0.02,7]trideca-1(9),10,12-trien-4-yl]quinoline-8-carbonitrile]"
